Key:
Assay type in all cases: cell-based
liver cells (HepG2) [1] = assay: Fatty acid oxidation in liver cells ([1-14C]-palmitate); conditions: 6 hours culture, positive control
Method: To determine the degree of fatty acid oxidation in liver cells, HepG2 cells were seeded on a 96-well plate. After stabilizing the seeded plate, AICAR and chito-oligosaccharide were added in a concentration of 100 and 500 ppm. After culturing for 6 hours, to the cells was added […] of assay buffer (20 mM HEPES, 25 mM NaHCO3, 1.2 mM KH2PO4, 3 mM glucose, 114 mM NaCl, 4.7 mM KCl, 1.2 mM MgSO4, 2.5 mM CaCl2, 1% ultra fatty acid-free BSA) and they are reacted for 30 minutes. Then, [1-^14C]-palmitate (3.4 μCi; 1.0 μCi/μmole) was incorporated thereto and labeling was carried out for 2 hours. 5% perchloric acid was added to stop the reaction and the amount of radiation was measured.

liver cells (HepG2) [2] = assay: Production of ATP in liver cells (ATP assay kit, luminescence); conditions: 5 to 500 ppm, 24 hours culture
Method: The production of ATP according to AMPK activation was measured by ATP assay kit. HepG2 cells were seeded on a 96-well plate and the seeded plate was stabilized and, thereafter, AICAR and chito-oligosaccharide were added in a concentration of 5 to 500 ppm. After culturing for 24 hours, the reagent prepared by mixing a substrate and a buffer was added to each well and they were reacted for 30 minutes at a room temperature. Cells were disrupted by mixing them in an orbital shaker and, after stabilizing them for 10 minutes, a luminescence was measured.

ACC = ACC activation: western blot of ACC and p-ACC protein expression in liver cells; conditions: HepG2 liver cells
Method: (§1) Chito-oligosaccharides with a molecular weight of 2,000 and 9,000 (100, 500 ppm) and liver cells (HepG2) treated by AICAR (1 mM) were added to a lysis buffer (50 mM Tris-HCl, pH 7.4, 150 mM NaCl, 0.1% SDS, 1.0% Triton X-100. 0.25% Deoxycholate, 1 mM EDTA, 1 mM PMSF) to disrupt the cells. The homogenate was centrifuged at 12,000 rpm for 15 minutes and a layer of protein was obtained. The degree of expression of ACC and p-ACC proteins was determined by a western blotting. 50 μg of protein was loaded on SDS-polyacrylamide gel, electrophoresis was carried out, and the gel was transferred to a nitrocellulose membrane. The membrane was reacted with blocking solution (5% skim milk, 10 mM Tris, pH7.5, 10 mM NaCl, 0.1% Tween 20) for 1 hour to remove nonspecific bindings, the primary antibodies to AMPK and p-AMPK proteins were added and it was maintained overnight at 4° C. Thereafter, it was washed with a blocking solution for 10 minutes three times, the secondary antibodies were added thereto, and they were reacted for 1 hour and washed as described above. After adding ECL solution, the membrane was exposed to X-ray film and the amount of protein was measured. The change in the amount of protein was calculated by an optical density with an image analyzer.
The expressions of ACC and p-ACC proteins were measured by a Western blotting as described above.

AMPK = AMPK activation: western blot of AMPK and p-AMPK protein expression in liver cells; conditions: HepG2 liver cells; AICAR 1 mM; chito-oligosaccharide 100, 500 ppm; western blot optical density
Method: as §1

NC(=O)c1ncn([C@@H]2O[C@H](CO)[C@@H](O)[C@H]2O)c1N [AICAR, AICA-riboside]
increased oxidation of fatty acid (liver cells (HepG2) [1]): about 35% | production of ATP (liver cells (HepG2) [2]): up to twice | amount of p-ACC protein expression (ACC; AICAR 1 mM, chito-oligosaccharide concentration not specified): up to twice | total amount of ACC protein expression (ACC; western blot): not changed | expression of p-AMPK protein (AMPK): increased twice or more

From patent US20100120711A1, “AMPK POTENTIATOR CONTAINING CHITO-OLIGOSACCHARIDE” (AMOREPACIFIC CORPORATION, priority 2006, published 2010)
